# Assay results taken from patent US10392422B2, “Macrocyclic broad spectrum antibiotics” (priority 2014, dated 2019).
# Like-named read-outs stand apart in the source and are kept apart here.
# Assays:
# Assay in all cases: MIC, broth micro-dilution technique (CLSI)
# [1] = tested on: Escherichia coli MC4100 harboring the IMP4213; assay type: cell-based; settings: 35° C., 22 hours; for MIC: Escherichia coli, 22 h; for MIC (μg/mL) E. coli: Table 1 protocol: serial 2-fold dilutions starting from 64 μg/ml
# Summary of the method: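 Susceptibility is tested by broth micro-dilution per CLSI, using ten serial 2-fold dilutions beginning at 64 μg/ml or, in a modified version, 4 μg/mL. The E. coli MC4100 strain carries an imp allele raising outer-membrane permeability.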
# [2] = tested on: Methicillin Resistant Staphylococcus aureus strain USA 300 (NRS384); assay type: cell-based; settings: for MIC: Staphylococcus aureus, 22 h, read-out: MIC (μg/mL) S. aureus
# Summary of the method: (§1)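 Cation-adjusted MHB + 0.002% Tween-80; 10-point 2-fold series starting 64 μg/ml (modified protocol: 4 μg/mL). Final inoculum OD600 0.0005; 35° C, 22 h. MIC per CLSI M07-A8 broth microdilution.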
# MRSA COL (NRS100) = assay type: cell-based, Staphylococcus aureus; settings: for MIC: Staphylococcus aureus, 22 h, read-out: MIC (μg/mL) (COL)
# Summary of the method: as §1
# [3] = read-out: MIC (μg/mL) E. coli, Table 1 protocol: serial 2-fold dilutions starting from 64 μg/ml
# [4] = Table 1 protocol: serial 2-fold dilutions starting from 64 μg/ml, 35° C., 22 hours
# [5] = read-out: MIC (μg/mL) E. coli, Table 2 modified protocol: serial 2-fold dilutions starting from 4 μg/mL
# [6] = Table 2 modified protocol: serial 2-fold dilutions starting from 4 μg/mL, 35° C., 22 hours
SMILES,"MIC [1, 3]",MIC [2],MIC (MRSA COL (NRS100)),"MIC [1, 5]",other results
CCCCCCCCCCNCCS(=O)(=O)N[C@@H](CCCCN)C(=O)N(C)[C@@H]1C(=O)N[C@@H](C)C(=O)N[C@H](C(=O)N[C@@H](C)C(C)=O)Cc2ccc(O)c(c2)-c2cc1ccc2OCCN [Compound 216],64 µg/mL,–,–,–,"MIC [2, 4]: 0.13 µg/mL; MIC (MRSA COL (NRS100); [4]): 0.063 µg/mL"
C[C@@H]1NC(=O)[C@@H](N(C)C(=O)[C@H](CCCCN)NC(=O)c2ccc(-c3ccc(Cl)cc3)cc2)c2ccc(OCCN)c(c2)-c2cc(ccc2OCCN)C[C@@H](C(=O)NCB(O)O)NC1=O [Compound 311],0.19 µg/mL,1.5 µg/mL,0.13 µg/mL,–,–
C[C@@H]1NC(=O)[C@@H](N(C)C(=O)[C@H](CCCCN)NC(=O)c2ccc(-c3ccc(Cl)cc3)cc2)c2ccc(OCCN)c(c2)-c2cc(ccc2OCCN)C[C@@H](C(=O)N[C@@H](C)C(=O)c2[nH]ncc2N)NC1=O [Compound 274],–,–,–,4 µg/mL,"MIC [2, 6]: > 4 µg/mL; MIC (MRSA COL (NRS100); [6]): 1.5 µg/mL"
C[C@@H]1NC(=O)[C@@H](N(C)C(=O)[C@H](CCCCN)NC(=O)c2ccc(-c3ccc(Cl)cc3)cc2)c2ccc(O)c(c2)-c2cc(ccc2O)C[C@@H](C(=O)N[C@@H](C)C(=O)N(C)[C@@H]2CCNC2=O)NC1=O [Compound 138],64 µg/mL,32 µg/mL,17 µg/mL,–,–
CCCCCCCCCCS(=O)(=O)N[C@@H](CCCCN)C(=O)N(C)[C@@H]1C(=O)N[C@@H](C)C(=O)N[C@H](C(=O)N[C@@H](C)C(=O)N2CCC[C@H]2C(N)=O)Cc2ccc(O)c(c2)-c2cc1ccc2O [Compound 224],64 µg/mL,–,–,–,"MIC [2, 4]: 16 µg/mL; MIC (MRSA COL (NRS100); [4]): 0.13 µg/mL"
C[C@@H]1NC(=O)[C@@H](N(C)C(=O)[C@H](CCCCN)NC(=O)c2ccc(-c3ccc(Cl)cc3)cc2)c2ccc(O)c(c2)-c2cc(ccc2O)C[C@@H](C(=O)NCC(=O)C2CO2)NC1=O (stereo partly drawn) [Compound 252],–,–,–,> 4 µg/mL,"MIC [2, 6]: > 4 µg/mL; MIC (MRSA COL (NRS100); [6]): > 4 µg/mL"
CCCCCCCCCCNCCC(=O)N[C@@H](CCCCN)C(=O)N(C)[C@@H]1C(=O)N[C@@H](C)C(=O)N[C@H](C(=O)O)Cc2ccc(O)c(c2)-c2cc1ccc2OCCN [Compound 113],25 µg/mL,9.5 µg/mL,2 µg/mL,–,–
CCCCCCCCCCCCCC(=O)N[C@@H](CN)C(=O)N(C)[C@@H]1C(=O)N[C@@H](C)C(=O)N[C@H](C(=O)O)Cc2ccc(OCCN)c(c2)-c2cc1ccc2OCCN [Compound 298],–,0.38 µg/mL,0.063 µg/mL,0.031 µg/mL,–
CCCCCCCCCCNCCC(=O)N[C@@H](CCCCN)C(=O)N(C)[C@@H]1C(=O)N[C@@H](C)C(=O)N[C@H](C(=O)N[C@@H](C)C(C)=O)Cc2ccc(OCCN)c(c2)-c2cc1ccc2OCCN.O=CO [Compound 270],–,–,–,–,"MIC (μg/mL) E. coli [1]: 8 µg/mL; MIC (μg/mL) S. aureus [2, 4]: 0.25 µg/mL; MIC (μg/mL) (COL) (MRSA COL (NRS100); [4]): 0.063 µg/mL"
CCCCc1ccc(-c2ccc(C(=O)N[C@@H](CCCN)C(=O)N(C)[C@@H]3C(=O)N[C@@H](C)C(=O)N[C@H](C(N)=O)Cc4ccc(OCCN)c(c4)-c4cc3ccc4OCCN)cc2)cc1 [Compound 335],–,0.19 µg/mL,0.063 µg/mL,0.13 µg/mL,–
C[C@H](NC(=O)[C@@H]1Cc2ccc(O)c(c2)-c2cc(ccc2O)[C@H](N(C)C(=O)[C@H](CCCCN)NC(=O)c2ccc(-c3ccc(Cl)cc3)cc2)C(=O)N[C@@H](C)C(=O)N1)B1O[C@@H]2C[C@@H]3C[C@@H](C3(C)C)[C@]2(C)O1 [Compound 133],2 µg/mL,2.5 µg/mL,1.5 µg/mL,–,–
C[C@H](NC(=O)[C@@H]1Cc2ccc(O)c(c2)-c2cc(ccc2O)[C@H](N(C)C(=O)[C@H](CCCCN)NC(=O)c2ccc(-c3ccc(Cl)cc3)cc2)C(=O)N[C@@H](C)C(=O)N1)C(=O)CNC=O [Compound 240],48 µg/mL,–,–,–,"MIC [2, 4]: 4 µg/mL; MIC (MRSA COL (NRS100); [4]): 2 µg/mL"
C[C@H](NC(=O)[C@@H]1Cc2ccc(OCCN)c(c2)-c2cc(ccc2OCCN)[C@H](N(C)C(=O)[C@H](CCCCN)NC(=O)c2ccc(-c3ccc(Cl)cc3)cc2)C(=O)N[C@@H](C)C(=O)N1)B1O[C@@H]2C[C@@H]3C[C@@H](C3(C)C)[C@]2(C)O1 [Compound 310],0.19 µg/mL,0.5 µg/mL,0.094 µg/mL,–,–
CCCCCCCCCCNCCC(=O)N[C@@H](CCCCN)C(=O)N(C)[C@@H]1C(=O)N[C@@H](C)C(=O)N[C@H](C(=O)N[C@@H](C)C(C)=O)Cc2ccc(O)c(c2)-c2cc1ccc2OC1O[C@H](CO)[C@@H](O)[C@H](O)[C@H]1N (stereo partly drawn) [Compound 339],–,2 µg/mL,1 µg/mL,> 4 µg/mL,–
C[C@H](NC(=O)[C@@H]1Cc2ccc(O)c(c2)-c2cc(ccc2O)[C@H](N(C)C(=O)[C@H](CCCCN)NC(=O)c2ccc(-c3ccc(Cl)cc3)cc2)C(=O)N[C@@H](C)C(=O)N1)C(=O)CF [Compound 247],–,–,–,> 4 µg/mL,"MIC [2, 6]: 2 µg/mL; MIC (MRSA COL (NRS100); [6]): 1 µg/mL"
C[C@H](NC(=O)[C@@H]1Cc2ccc(O)c(c2)-c2cc(ccc2O)[C@H](N(C)C(=O)[C@H](CCCCN)NC(=O)c2ccc(-c3ccc(Cl)cc3)cc2)C(=O)N[C@@H](C)C(=O)N1)C(=O)CNS(C)(=O)=O [Compound 162],32 µg/mL,8 µg/mL,2 µg/mL,–,–
C[C@@H]1NC(=O)[C@@H](N(C)C(=O)[C@H](CCCCN)NC(=O)c2ccc(-c3ccc(Cl)cc3)cc2)c2ccc(O)c(c2)-c2cc(ccc2O)C[C@@H](C(=O)N[C@@H](C)C(=O)N(C)CC(N)=O)NC1=O [Compound 182],64 µg/mL,–,–,–,"MIC [2, 4]: 10 µg/mL; MIC (MRSA COL (NRS100); [4]): 2 µg/mL"
CCCCCCCCc1ccc(C(=O)N[C@@H](CCCN)C(=O)N(C)[C@@H]2C(=O)N[C@@H](C)C(=O)N[C@H](C(=O)O)Cc3ccc(OCCN)c(c3)-c3cc2ccc3OCCN)c(F)c1 [Compound 297],0.063 µg/mL,0.38 µg/mL,0.063 µg/mL,–,–
C[C@@H]1NC(=O)[C@@H](N(C)C(=O)[C@H](CCCCN)NC(=O)c2ccc(-c3ccc(Cl)cc3)cc2)c2ccc(O)c(c2)-c2cc(ccc2O)C[C@@H](C(=O)N[C@@H](C)/C=C/S(C)(=O)=O)NC1=O [Compound 144],32 µg/mL,8 µg/mL,2 µg/mL,–,–
C[C@@H]1NC(=O)[C@@H](N(C)C(=O)[C@H](CCCCN)NC(=O)c2ccc(-c3ccc(Cl)cc3)cc2)c2ccc(O)c(c2)-c2cc(ccc2O)C[C@@H](C(=O)N[C@@H](C)C(=O)C(F)(F)C(=O)O)NC1=O [Compound 152],–,–,–,–,"MIC (μg/mL) E. coli [1]: 16 µg/mL; MIC (μg/mL) S. aureus [2, 4]: 10 µg/mL; MIC (μg/mL) (COL) (MRSA COL (NRS100); [4]): 4 µg/mL"
C[C@@H]1NC(=O)[C@@H](N(C)C(=O)[C@H](CCCCN)NC(=O)c2ccc(Oc3ccc(Cl)cc3)cc2)c2ccc(OCCN)c(c2)-c2cc(ccc2OCCN)C[C@@H](C(=O)O)NC1=O [Compound 285],–,2 µg/mL,0.5 µg/mL,0.25 µg/mL,–
CCCCCCCCCCNCCC(=O)N[C@@H](CCCCN)C(=O)N(C)[C@@H]1C(=O)N[C@@H](C)C(=O)N[C@H](C(=O)N[C@@H](C)C(=O)N2CCC[C@H]2C(N)=O)Cc2ccc(O)c(c2)-c2cc1ccc2OCCN [Compound 190],32 µg/mL,–,–,–,"MIC [2, 4]: 1.7 µg/mL; MIC (MRSA COL (NRS100); [4]): 0.25 µg/mL"
C[C@@H]1NC(=O)[C@@H](N(C)C(=O)[C@H](CCCCN)NC(=O)c2ccc(-c3ccc(Cl)cc3)cc2)c2ccc(O)c(c2)-c2cc(ccc2O)C[C@@H](C(=O)NCC(=O)c2nnn[nH]2)NC1=O [Compound 244],–,–,–,> 4 µg/mL,"MIC [2, 6]: > 4 µg/mL; MIC (MRSA COL (NRS100); [6]): 4 µg/mL"
C[C@H](NC(=O)[C@@H]1Cc2ccc(O)c(c2)-c2cc(ccc2OCCN)[C@H](N(C)C(=O)[C@H](CCCCN)NC(=O)c2ccc(-c3ccc(Cl)cc3)cc2)C(=O)N[C@@H](C)C(=O)N1)C(=O)CO [Compound 118],2 µg/mL,1 µg/mL,0.63 µg/mL,–,–
